Source: the supplement of paper PMC10307832

Tests used:
Test in all cases: relative viability (nuclei count vs DMSO), 5 days (fraction); higher = more cells survive
[1] = compound: CC(=O)Nc1cccc(-n2c(=O)n(C3CC3)c(=O)c3c(Nc4ccc(I)cc4F)n(C)c(=O)c(C)c32)c1 [Trametinib] + CC1(C)CCC(c2ccc(Cl)cc2)=C(CN2CCN(c3ccc(C(=O)NS(=O)(=O)c4ccc(N[C@H](CCN5CCOCC5)CSc5ccccc5)c(S(=O)(=O)C(F)(F)F)c4)cc3)CC2)C1 [Navitoclax] (partner 0.5 µM)
In short: (§1)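 Lung cancer cell lines in 1536-well plates were dosed by pin tool the day after seeding, either with one drug alone or with a fixed anchor-drug dose plus five library-drug doses (not always all listed) in √10 steps. After 5 days, cells were fixed and their nuclei stained in one step (final 0.05% Triton X-100, 1% formaldehyde, 1 ug/ml Hoechst), then counted on 4× images. Relative viability is the nuclei count in treated wells divided by that in vehicle wells. Values are medians of duplicate plates.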

[2] = compound: CC(=O)Nc1cccc(-n2c(=O)n(C3CC3)c(=O)c3c(Nc4ccc(I)cc4F)n(C)c(=O)c(C)c32)c1 [Trametinib] + C[C@@H](Oc1cc(-c2cnn(C3CCNCC3)c2)cnc1N)c1c(Cl)ccc(F)c1Cl [Crizotinib] (partner 1 µM)
In short: as §1

[3] = compound: CC(=O)Nc1cccc(-n2c(=O)n(C3CC3)c(=O)c3c(Nc4ccc(I)cc4F)n(C)c(=O)c(C)c32)c1 [Trametinib] + Cc1cc(Nc2cc(N3CCN(C)CC3)nc(Sc3ccc(NC(=O)C4CC4)cc3)n2)n[nH]1 [Tozasertib] (partner 0.1 µM)
In short: as §1

[4] = compound: CN1C=C(C2=CC=CC=C21)/C=C\3/C4=C(C=CC=N4)NC3=O + Nc1nc2[nH]cc(CCc3ccc(C(=O)N[C@@H](CCC(=O)O)C(=O)O)cc3)c2c(=O)[nH]1 [Pemetrexed] (partner 0.2 µM)
In short: as §1

Cell Line | relative viability ([1]; first compound 0.0025 µM) | relative viability ([1]; first compound 0.007906 µM) | relative viability ([1]; first compound 0.025 µM) | relative viability ([1]; first compound 0.07906 µM) | relative viability ([1]; first compound 0.25 µM) | relative viability ([2]; first compound 0.0025 µM) | relative viability ([2]; first compound 0.007906 µM) | relative viability ([2]; first compound 0.025 µM) | relative viability ([2]; first compound 0.07906 µM) | relative viability ([2]; first compound 0.25 µM) | relative viability ([3]; first compound 0.0025 µM) | relative viability ([3]; first compound 0.007906 µM) | relative viability ([3]; first compound 0.025 µM) | relative viability ([3]; first compound 0.07906 µM) | relative viability ([3]; first compound 0.25 µM) | relative viability ([4]; first compound 0.02 µM) | relative viability ([4]; first compound 0.06325 µM) | relative viability ([4]; first compound 0.2 µM) | relative viability ([4]; first compound 0.6325 µM) | relative viability ([4]; first compound 2 µM)
NCI-H2087 | 0.718 | 0.406 | 0.244 | 0.223 | 0.257 | 0.888 | 0.667 | 0.495 | 0.33 | 0.289 | 0.189 | 0.166 | 0.111 | 0.12 | 0.108 | 0.671 | 0.62 | 0.622 | 0.631 | 0.656
CAL-12T | 1.04 | 0.831 | 0.554 | 0.738 | 0.492 | 0.651 | 0.853 | 0.434 | 0.367 | 0.213 | 0.275 | 0.273 | 0.196 | 0.199 | 0.202 | 1.1 | 1.13 | 1.21 | 1.34 | 1.34
NCI-H596 | 0.893 | 0.624 | 0.525 | 0.498 | 0.363 | 0.8 | 0.824 | 0.757 | 0.721 | 0.597 | 0.867 | 0.733 | 0.602 | 0.784 | 0.464 | 0.494 | 0.494 | 0.527 | 0.456 | 0.531
PC-14 | 0.99 | 1.05 | 0.978 | 0.882 | 0.452 | 0.994 | 0.909 | 0.815 | 0.686 | 0.55 | 0.508 | 0.527 | 0.46 | 0.364 | 0.156 | 0.141 | 0.137 | 0.145 | 0.143 | 0.118
NCI-H1915 | 0.799 | 0.79 | 0.681 | 0.719 | 0.217 | 0.872 | 0.756 | 0.568 | 0.333 | 0.231 | 0.453 | 0.337 | 0.268 | 0.219 | 0.165 | 0.463 | 0.41 | 0.579 | 0.487 | 0.504
NCI-H647 | 1.01 | 1.07 | 0.834 | 0.55 | 0.267 | 0.961 | 1.04 | 0.746 | 0.671 | 0.572 | 0.188 | 0.216 | 0.261 | 0.216 | 0.136 | 0.122 | 0.173 | 0.153 | 0.167 | 0.175
NCI-H322M | 1.15 | 0.97 | 1.01 | 0.827 | 0.687 | 0.943 | 0.986 | 0.686 | 0.697 | 1.04 | 0.465 | 0.361 | 0.387 | 0.331 | 0.369 | 0.606 | 0.575 | 0.598 | 0.673 | 0.641
NCI-H2170 | 0.636 | 0.521 |  | 0.425 | 0.448 | 1.16 | 1.07 |  | 1.1 | 1.04 | 0.733 | 0.702 | 0.466 | 0.709 | 0.616 | 0.261 | 0.254 | 0.292 | 0.264 | 0.257
